Results reported in patent publication US9802939.
Read-outs that look alike come from different tables or passages of the source.

Conditions: 12-membered ring

COC(=O)Nc1ccc2c(c1)NC(=O)CCN(C(=O)OC(C)(C)C)C[C@H](NC(=O)OCc1ccccc1)c1nc-2cn1COCC[Si](C)(C)C
ring closure, isolated yield (from COC(=O)Nc1ccc(-c2cn(COCC[Si](C)(C)C)c([C@H](CN(CCC(=O)O)C(=O)OC(C)(C)C)NC(=O)OCc3ccccc3)n2)c(N)c1, amide bond, BOP/DIEA, DCM/DMF, 0.93 mM, 25.0 °C): 87%

CC(C)(C)OC(=O)N[C@H]1CC=CCCOc2ccccc2-c2cn(COCC[Si](C)(C)C)c1n2
ring closure, isolated yield (from C=CCCOc1ccccc1-c1cn(COCC[Si](C)(C)C)c([C@H](CC=C)NC(=O)OC(C)(C)C)n1, rcm bond, Grubbs II (1 eq)/pTsOH, DCM, 1.02 mM, 40.0 °C): 20%
